In US8426437B2, “Pyrroloquinoline derivatives and their use as protein kinases inhibitors” (Pierre Fabre Medicament, priority 2005, dated 2013):
Where a name gives a salt, the structure may show the parent alone.

What was measured:
Type in all cases: biochemical
PIM-1 = biological target: T1, PIM-1 (Homo sapiens, UniProt P11309); test: Inhibition of kinase PIM-1 (Kinase-Glo); conditions: PIM-1 0.625 μg/ml, 10 μM ATP, forty minutes at 30° C.
T1 construct: purchased Upstate 14-573
How it was run: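 PIM-1 (0.625 μg/ml) in MOPS/NaOH pH 7 with Mg acetate was run with 70 μM S6 kinase/Rsk2 peptide and 10 μM ATP, with compound at 10 nM–30 μM final.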

ALK = ALK (Homo sapiens, UniProt Q9UM73); test: Inhibition of kinase ALK (PLCγ1-GST substrate, anti-phosphotyrosine ELISA); conditions: ALK 180 ng/ml, 250 μM ATP, 30 minutes at 30° C.
Description: Incubation is carried out for 30 minutes at 30° C. with agitation.
The signal is read in luminescent mode using a luminometer.

RET = biological target: T2, RET (Homo sapiens, UniProt P07949); test: Inhibition of RET kinase activity, recombinant RET method (Kinase-Glo); conditions: RET 2 μg/ml, poly-EY4 substrate, 20 μM ATP, two hours at 30° C.
T2 construct: purchased Upstate 14-570MG
How it was run: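 Recombinant RET at 2 μg/ml in 20 mM MOPS/NaOH pH 7.0, 1 mM EDTA, 5% glycerol, 0.01% Brij35, 0.1% 2-mercaptoethanol, 1 mg/ml BSA; compounds 10 nM–30 μM final.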

TrkB = biological target: T3, TrkB (Homo sapiens, UniProt Q16620); test: Inhibition of kinase TrkB (Kinase-Glo); conditions: TrkB 4 μg/ml, 40 μM ATP, two hours at 30° C.
T3 construct: purchased Upstate 14-507
Description: Protein TrkB (Upstate 14-507; batch #25578U) is incubated at a concentration of 4 μg/ml in a buffer containing 8 mM of MOPS/NaOH pH7, 0.2 mM EDTA, 40 mM MgAc (Sigma #229768), 1 mM DTT (Fluka #43816), NaOV 1 mM, 25 mM 2-glycerolphosphate (Sigma #G9891), in the presence of 2.5 mg/ml of peptide substrate poly-EY (Upstate #P0275), and 40 μM of ATP.
The dilution buffer for TrkB is as follows: 20 mM MOPS/NaOH pH7, 1 mM EDTA, 5% glycerol, 0.01% Brij35, 0.1% 2-mercapto, 1 mg/ml BSA.
(§1) The compound to be tested is first added to the enzyme to give a reaction volume of 50 μl. The dilution of the compounds of the invention is distributed so as to obtain a scale of final concentrations between 10 nM and 30 μM.
(§2) After incubation of the reaction mixture for two hours at 30° C., the level of ATP that remains is assayed using the Kinase-Glo Luminescent Kinase Assay (Promega #V6712) according to the conditions recommended by the supplier. The luminescence induced is read in a plate reader (Envision-Perkin Elmer).

TrkA = biological target: T4, TrkA (Homo sapiens, UniProt P04629); test: Inhibition of kinase TrkA (Kinase-Glo); conditions: TrkA 4 μg/ml, 30 μM ATP, two hours at 30° C.
T4 construct: purchased Upstate 14-571
Description: Protein TrkA (Upstate 14-571; batch #25634U) is incubated at a concentration of 4 μg/ml in a buffer containing 8 mM of MOPS/NaOH pH7, 0.2 mM EDTA, 40 mM MgAc (Sigma #229768), 1 mM DTT (Fluka #43816), NaOV 1 mM, 0.01% Triton Tx100, in the presence of 1 mg/ml of peptide substrate poly-EY (Upstate #P0275), and 30 μM of ATP.
The dilution buffer for TrkA is as follows: 20 mM MOPS/NaOH pH7, 1 mM EDTA, 5% glycerol, 0.01% Brij35, 0.1% 2-mercapto, 1 mg/ml BSA.
as §1, §2

Sequence of ALK (Q9UM73 19-1620, species assumed): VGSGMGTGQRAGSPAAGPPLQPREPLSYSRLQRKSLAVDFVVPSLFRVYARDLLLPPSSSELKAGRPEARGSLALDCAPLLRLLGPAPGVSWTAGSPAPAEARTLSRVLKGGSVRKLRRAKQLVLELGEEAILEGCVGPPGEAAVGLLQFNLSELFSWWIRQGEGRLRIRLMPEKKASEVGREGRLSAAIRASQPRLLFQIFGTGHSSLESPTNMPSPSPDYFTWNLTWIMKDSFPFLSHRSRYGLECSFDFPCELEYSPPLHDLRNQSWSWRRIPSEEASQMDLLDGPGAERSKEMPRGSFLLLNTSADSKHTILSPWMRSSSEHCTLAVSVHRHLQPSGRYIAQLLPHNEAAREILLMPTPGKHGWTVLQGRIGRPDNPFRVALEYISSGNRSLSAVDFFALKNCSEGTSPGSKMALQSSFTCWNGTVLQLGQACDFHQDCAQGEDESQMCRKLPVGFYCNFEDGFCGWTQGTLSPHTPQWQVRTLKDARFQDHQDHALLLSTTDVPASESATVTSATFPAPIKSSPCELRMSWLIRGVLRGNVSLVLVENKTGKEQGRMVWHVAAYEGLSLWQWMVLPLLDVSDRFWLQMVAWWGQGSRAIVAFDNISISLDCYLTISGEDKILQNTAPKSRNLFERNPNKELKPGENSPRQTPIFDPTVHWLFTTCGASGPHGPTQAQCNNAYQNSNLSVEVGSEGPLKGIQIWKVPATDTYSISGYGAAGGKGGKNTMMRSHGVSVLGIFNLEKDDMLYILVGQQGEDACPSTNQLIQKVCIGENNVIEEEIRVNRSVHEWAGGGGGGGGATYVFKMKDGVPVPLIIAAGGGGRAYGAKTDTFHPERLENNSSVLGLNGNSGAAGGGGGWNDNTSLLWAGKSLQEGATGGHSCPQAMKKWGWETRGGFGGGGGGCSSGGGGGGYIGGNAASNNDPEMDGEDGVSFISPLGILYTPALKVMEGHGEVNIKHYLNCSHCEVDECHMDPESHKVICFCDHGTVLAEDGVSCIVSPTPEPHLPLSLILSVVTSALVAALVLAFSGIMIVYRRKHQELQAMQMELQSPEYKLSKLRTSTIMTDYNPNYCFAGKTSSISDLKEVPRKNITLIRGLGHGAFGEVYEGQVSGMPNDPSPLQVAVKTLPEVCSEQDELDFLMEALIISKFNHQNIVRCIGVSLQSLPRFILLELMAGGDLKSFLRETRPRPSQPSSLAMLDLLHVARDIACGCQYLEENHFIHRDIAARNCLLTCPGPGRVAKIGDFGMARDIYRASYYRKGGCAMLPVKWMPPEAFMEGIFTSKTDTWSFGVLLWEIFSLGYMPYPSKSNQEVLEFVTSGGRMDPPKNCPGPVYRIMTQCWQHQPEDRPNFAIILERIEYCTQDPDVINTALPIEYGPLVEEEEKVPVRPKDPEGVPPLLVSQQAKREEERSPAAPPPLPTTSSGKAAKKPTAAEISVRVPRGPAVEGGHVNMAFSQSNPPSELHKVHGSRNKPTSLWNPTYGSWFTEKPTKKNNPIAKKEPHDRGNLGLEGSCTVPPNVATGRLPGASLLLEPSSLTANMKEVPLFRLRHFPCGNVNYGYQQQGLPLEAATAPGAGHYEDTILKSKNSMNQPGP
T2 sequence (P07949 29-1114): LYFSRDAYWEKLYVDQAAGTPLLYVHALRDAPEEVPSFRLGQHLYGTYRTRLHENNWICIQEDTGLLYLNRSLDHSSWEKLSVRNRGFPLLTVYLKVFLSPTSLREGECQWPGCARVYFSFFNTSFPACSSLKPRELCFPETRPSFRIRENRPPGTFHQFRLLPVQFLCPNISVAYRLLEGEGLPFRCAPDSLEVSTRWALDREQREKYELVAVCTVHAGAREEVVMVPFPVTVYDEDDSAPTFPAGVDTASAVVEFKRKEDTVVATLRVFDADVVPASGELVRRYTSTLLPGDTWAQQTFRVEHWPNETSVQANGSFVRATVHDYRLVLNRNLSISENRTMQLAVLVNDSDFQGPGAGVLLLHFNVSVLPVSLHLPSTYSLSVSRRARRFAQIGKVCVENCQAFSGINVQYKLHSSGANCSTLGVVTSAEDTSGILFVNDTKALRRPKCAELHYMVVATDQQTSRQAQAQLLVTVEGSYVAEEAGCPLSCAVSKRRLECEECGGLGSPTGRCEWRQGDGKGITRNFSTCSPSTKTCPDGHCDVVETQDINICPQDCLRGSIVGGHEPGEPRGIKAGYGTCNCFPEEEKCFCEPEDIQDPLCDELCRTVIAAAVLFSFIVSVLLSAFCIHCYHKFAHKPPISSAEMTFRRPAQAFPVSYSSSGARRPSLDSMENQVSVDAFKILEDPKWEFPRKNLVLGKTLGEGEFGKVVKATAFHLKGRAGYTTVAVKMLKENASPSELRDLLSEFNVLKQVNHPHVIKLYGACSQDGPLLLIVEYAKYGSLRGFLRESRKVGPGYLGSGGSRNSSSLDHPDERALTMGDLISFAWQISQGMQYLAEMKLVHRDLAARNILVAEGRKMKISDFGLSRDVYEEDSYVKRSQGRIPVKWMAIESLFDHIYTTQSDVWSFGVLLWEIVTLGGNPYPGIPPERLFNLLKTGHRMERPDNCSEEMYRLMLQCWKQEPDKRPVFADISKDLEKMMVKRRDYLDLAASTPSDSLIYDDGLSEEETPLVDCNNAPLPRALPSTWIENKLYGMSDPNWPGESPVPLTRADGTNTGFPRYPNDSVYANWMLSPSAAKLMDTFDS
T1 sequence (P11309 whole entry): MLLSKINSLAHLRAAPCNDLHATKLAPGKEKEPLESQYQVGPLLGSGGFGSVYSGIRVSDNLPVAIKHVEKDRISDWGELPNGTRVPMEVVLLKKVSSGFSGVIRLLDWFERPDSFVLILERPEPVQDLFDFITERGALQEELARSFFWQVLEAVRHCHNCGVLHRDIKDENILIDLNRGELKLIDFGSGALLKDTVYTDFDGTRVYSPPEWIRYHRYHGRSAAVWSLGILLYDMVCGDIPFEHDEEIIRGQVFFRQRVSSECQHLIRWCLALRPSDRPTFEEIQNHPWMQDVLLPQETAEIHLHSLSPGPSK
T4 sequence (P04629 33-796): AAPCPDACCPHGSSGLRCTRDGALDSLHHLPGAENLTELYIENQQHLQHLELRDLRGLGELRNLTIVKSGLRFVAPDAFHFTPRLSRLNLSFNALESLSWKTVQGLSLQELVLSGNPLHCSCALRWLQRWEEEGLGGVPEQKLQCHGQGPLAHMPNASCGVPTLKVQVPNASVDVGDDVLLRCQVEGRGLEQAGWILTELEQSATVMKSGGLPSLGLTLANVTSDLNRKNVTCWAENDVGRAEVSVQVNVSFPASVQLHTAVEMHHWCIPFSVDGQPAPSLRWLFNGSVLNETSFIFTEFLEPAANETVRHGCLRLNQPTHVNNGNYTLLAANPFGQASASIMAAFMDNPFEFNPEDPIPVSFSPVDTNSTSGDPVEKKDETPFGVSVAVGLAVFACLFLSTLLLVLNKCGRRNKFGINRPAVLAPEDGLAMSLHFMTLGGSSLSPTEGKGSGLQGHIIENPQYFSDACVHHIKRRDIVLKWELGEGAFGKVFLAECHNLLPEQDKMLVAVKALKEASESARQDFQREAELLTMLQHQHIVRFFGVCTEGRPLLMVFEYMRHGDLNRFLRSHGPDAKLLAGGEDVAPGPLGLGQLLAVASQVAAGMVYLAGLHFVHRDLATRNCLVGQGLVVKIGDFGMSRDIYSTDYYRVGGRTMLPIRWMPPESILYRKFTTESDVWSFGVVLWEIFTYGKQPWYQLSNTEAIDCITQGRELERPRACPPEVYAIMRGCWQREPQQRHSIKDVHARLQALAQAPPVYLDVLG
T3 sequence (Q16620 32-822): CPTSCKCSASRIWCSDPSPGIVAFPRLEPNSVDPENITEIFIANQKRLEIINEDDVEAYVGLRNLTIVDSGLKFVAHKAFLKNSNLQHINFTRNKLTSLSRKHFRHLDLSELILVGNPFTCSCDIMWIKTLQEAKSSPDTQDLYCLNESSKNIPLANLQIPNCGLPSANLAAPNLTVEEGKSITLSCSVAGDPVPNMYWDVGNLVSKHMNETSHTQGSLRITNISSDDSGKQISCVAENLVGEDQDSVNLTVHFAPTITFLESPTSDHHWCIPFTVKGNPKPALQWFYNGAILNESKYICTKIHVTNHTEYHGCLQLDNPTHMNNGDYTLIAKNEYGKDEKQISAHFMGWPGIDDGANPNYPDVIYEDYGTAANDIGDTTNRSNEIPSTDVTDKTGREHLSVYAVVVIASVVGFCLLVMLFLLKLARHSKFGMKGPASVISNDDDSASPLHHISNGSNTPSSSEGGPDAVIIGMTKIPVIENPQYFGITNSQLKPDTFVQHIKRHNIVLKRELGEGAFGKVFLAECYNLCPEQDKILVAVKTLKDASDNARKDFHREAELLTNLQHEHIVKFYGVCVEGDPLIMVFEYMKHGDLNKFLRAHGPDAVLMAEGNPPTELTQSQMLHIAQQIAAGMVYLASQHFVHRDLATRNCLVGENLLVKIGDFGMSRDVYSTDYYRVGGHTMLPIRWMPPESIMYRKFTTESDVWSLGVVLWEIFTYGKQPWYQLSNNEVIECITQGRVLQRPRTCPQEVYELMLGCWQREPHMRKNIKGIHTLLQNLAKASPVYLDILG

Row | SMILES | IC50 (PIM-1) [µM] | IC50 (ALK) [µM] | IC50 (RET) [µM] | IC50 (TrkB) [µM] | IC50 (TrkA) [µM]
1 | CCOC(=O)c1c[nH]c2c(=O)[nH]c3ccc(S(=O)(=O)NCCCN(C)C)cc3c12 [Compound 32, 8-(3-Dimethylamino-propylsulfamoyl)-4-oxo-4,5-dihydro-3H-pyrrolo[2,3-c]quinoline-1-ethyl carboxylate] | 10 to 100 | 10 to 100 | 0.1 to 1 | – | –
2 | CCOC(=O)c1c[nH]c2c(=O)[nH]c3ccc(S(=O)(=O)NC4CCNCC4)cc3c12 [Compound 91, 4-oxo-8-(piperidin-4-ylsulfamoyl)-4,5-dihydro-3H-pyrrolo[2,3-c]quinoline-1-ethyl carboxylate] | 1 to 10 | 0.1 to 1 | 0.1 to 1 | – | –
3 | CCOC(=O)c1c[nH]c2c(=O)[nH]c3ccc(S(=O)(=O)N4CC5CNCC5C4)cc3c12 (centres unmarked) [Compound 93, 8-(Octahydro-pyrrolo[3,4-c]pyrrole-2-sulfonyl)-4-oxo-4,5-dihydro-3H-pyrrolo[2,3-c]quinoline-1-ethyl carboxylate] | 1 to 10 | 0.1 to 1 | 0.1 to 1 | – | –
4 | CCOC(=O)c1c[nH]c2c(=O)[nH]c3ccc(S(=O)(=O)NCCCCN)cc3c12 [Compound 33, 8-(4-Amino-butylsulfamoyl)-4-oxo-4,5-dihydro-3H-pyrrolo[2,3-c]quinoline-1-ethyl carboxylate] | 10 to 100 | 1 to 10 | 0.1 to 1 | – | –
5 | CCCOC(=O)c1c[nH]c2c(=O)[nH]c3ccc(S(=O)(=O)N(C[C@@H](C)N)C4CC4)cc3c12 [Compound 155, (R)-8-[(2-Amino-propyl)-cyclopropyl-sulfamoyl]-4-oxo-4,5-dihydro-3H-pyrrolo[2,3-c]quinoline-1-propyl carboxylate hydrochloride] | – | 0.1 to 1 | < 0.1 | – | –
6 | CCCOC(=O)c1c[nH]c2c(=O)[nH]c3ccc(S(=O)(=O)N(C[C@@H]4CCCN4)C4CC4)cc3c12 [Compound 144, (S)-8-(Cyclopropyl-pyrrolidin-2-ylmethyl-sulfamoyl)-4-oxo-4,5-dihydro-3H-pyrrolo[2,3-c]quinoline-1-propyl carboxylate hydrochloride] | – | 0.1 to 1 | < 0.1 | – | –
7 | CCCOC(=O)c1c[nH]c2c(=O)[nH]c3ccc(S(=O)(=O)N(C[C@H](C)N)C4CC4)cc3c12 [Compound 153, (S)-8-[(2-Amino-propyl)-cyclopropyl-sulfamoyl]-4-oxo-4,5-dihydro-3H-pyrrolo[2,3-c]quinoline-1-propyl carboxylate hydrochloride] | – | 0.1 to 1 | < 0.1 | – | –
8 | CCCOC(=O)c1c[nH]c2c(=O)[nH]c3ccc(S(=O)(=O)N(C[C@@H]4CCCN4)C(C)C)cc3c12 [Compound 149, (S)-8-(Isopropyl-pyrrolidin-2-ylmethyl-sulfamoyl)-4-oxo-4,5-dihydro-3H-pyrrolo[2,3-c]quinoline-1-propyl carboxylate hydrochloride] | – | 0.1 to 1 | < 0.1 | – | –

Next, values leading:

Row | IC50 (PIM-1) [µM] | IC50 (ALK) [µM] | IC50 (RET) [µM] | IC50 (TrkB) [µM] | IC50 (TrkA) [µM] | SMILES
9 | 1 to 10 | 0.1 to 1 | 1 to 10 | – | – | COC(=O)c1c[nH]c2c(=O)[nH]c3ccc(S(=O)(=O)NC4CCCNC4)cc3c12 (centres unmarked) [Compound 112, 4-Oxo-8-(piperidin-3-ylsulfamoyl)-4,5-dihydro-3H-pyrrolo[2,3-c]quinoline-1-methyl carboxylate]
10 | 10 to 100 | 0.1 to 1 | 0.1 to 1 | 1 to 10 | 1 to 10 | CCOC(=O)c1c[nH]c2c(=O)[nH]c3ccc(-c4csc(Nc5ccccc5)n4)cc3c12 [Compound 271, 4-Oxo-8-(2-phenylamino-thiazol-4-yl)-4,5-dihydro-3H-pyrrolo[2,3-c]quinoline-1-ethyl carboxylate]
11 | 1 to 10 | 1 to 10 | 0.1 to 1 | – | – | COC(=O)c1c[nH]c2c(=O)[nH]c3ccc(S(=O)(=O)NC4CCNCC4)cc3c12 [Compound 113, 4-Oxo-8-(piperidin-4-ylsulfamoyl)-4,5-dihydro-3H-pyrrolo[2,3-c]quinoline-1-methyl carboxylate]
12 | – | 1 to 10 | 0.1 to 1 | – | – | CCOC(=O)c1c[nH]c2c(=O)[nH]c3ccc(S(=O)(=O)NC4CC4)cc3c12 [Compound 123, 8-Cyclopropylsulfamoyl-4-oxo-4,5-dihydro-3H-pyrrolo[2,3-c]quinoline-1-ethyl carboxylate]
13 | – | 0.1 to 1 | 0.1 to 1 | – | – | CCCOC(=O)c1c[nH]c2c(=O)[nH]c3ccc(S(=O)(=O)N(C)C4CN(C(c5ccccc5)c5ccccc5)C4)cc3c12 [Compound 130, 8-[(1-Benzhydryl-azetidin-3-yl)-methyl-sulfamoyl]-4-oxo-4,5-dihydro-3H-pyrrolo[2,3-c]quinoline-1-propyl carboxylate]
14 | 10 to 100 | 0.1 to 1 | 0.1 to 1 | – | – | CCOC(=O)c1c[nH]c2c(=O)[nH]c3ccc(S(=O)(=O)NC[C@H]4CCNC4)cc3c12 [Compound 97, (S)-4-Oxo-8-[(pyrrolidin-3-methyl)-sulfamoyl]-4,5-dihydro-3H-pyrrolo[2,3-c]quinoline-1-ethyl carboxylate]
